Measurements as given in US7101844B2, “Cytoplasmic transduction peptides and uses thereof” (Creagene, Inc., priority 2002, dated 2006).
Entries after “also recorded” stand apart in the source; their conditions may differ.

Tested on: HeLa cells
Experiment: Subcellular localization of CTP-β-gal by confocal scanning microscope
Type: cell-based
Settings: β-galactosidase fusion protein, 100 μg/ml, 1 hr
Description: To select cytoplamic transduction peptides (CTPs) of interest, HeLa cells were transduced with CTP-β-galactosidase, and then examined under the confocal scanning microscope. Before the confocal analysis, cells were stained with mouse anti-β-galactosidase antibody and 2nd antibodies conjugated with FITC (Fluorescence-iso-thio-cyanate) or with PE (phycoerythrin) together with DNA staining reagent (green fluorescence SYTO-16 DNA staining dye, Molecular Probe). First, HeLa cells (5×10^5 cells/ml) were plated onto a 6-well plate containing sterilized cover-slips and cultured overnight at 37° C. CO2 incubator. The cells were washed with PBS (pH 7.4) and 1 ml of an OPTI-MEM I medium was added, followed by treatment with candidate CTP-fused proteins (100 μg/ml). As a positive control, PTD-β-galactosidase fusion protein was employed, and as a negative control, only β-galactosidase protein was used. Following the treatment with candidate CTP-β-galactosidase fusion proteins, cells were incubated for 1 hr at 37° C. incubator. The cells were rinsed three times with PBS and fixed with 2% paraformaldehyde for 20 min at 4° C. HeLa cells fixed were washed twice with washing buffer (PBS containing 0.2% BSA and 0.02% sodium azide). To stain the cells with antibody, cells were pre-treated with 0.5% Triton X-100 (in PBS, Sigma) at 4° C. for 20 min. Cells were washed three times with washing buffer and then stained with mouse anti-β-galactosidase antibody (diluted 1:2,000, Sigma) for 1 hr at 4° C. as a primary antibody and then washed three times with washing buffer. Cells were then incubated with FITC-conjugated goat anti-mouse IgG (diluted 1:2,000, Jackson Laboratory) as a secondary antibody for 20 min at 4° C. Washed 3 times with the same washing buffer, cells were fixed on a slide glass with fluorescence mounting medium (DAKO) and the edge of slide glass was sealed with nail vanish.
Double staining was carried out with SYTO-16 DNA staining dye as follows: First, the cells were incubated with the primary antibodies under the same conditions and rinsed three times. Then, the cells were incubated at 4° C. for 20 min with PE-conjugated goat anti-mouse IgG PE (diluted 1:2,000, Jackson Laboratory). Washed three times with washing buffer, cells were incubated with SYTO-16 DNA staining dye (diluted 1:1,000, DAKO) for 20 min at 4° C. Cells were fixed and sealed on a slide glass and then examined under a confocal laser scanning microscope.
In the present experiment, LEICA TCS NT SP confocal microscope (LEICA Lasertech GmbH, Heidelverg, Germany) was employed, which was equipped with lager generator of argon (Ar) and krypton (Kr), scanning device, and filter capable of detecting FITC (510–550 nm) and PE (600–660) at independent channel. Photographs were taken by PL-APO X100 objective. For single staining, the cells were sectioned into 4-layers and fluorescence and transmission photographs were taken. For double staining, FITC, PE, and transmission photographs were taken using optimal respective filter.

Substance: CTP512: CTP (2G4R8R9R), sequence YGRRARRRRRR; representative CTP used from Example 5-4 on
- cytoplasmic remaining property / subcellular localization: excellent cytoplamic localization property; also recorded: excellent cytoplamic remaining property; also recorded: significantly high
- cytoplasmic remaining property / subcellular localization (listed as CTP 512): excellent cytoplasmic remaining property
